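Where inhibition never reached the appropriate level, the endpoint shown equals the highest concentration tested. Otherwise, values were interpolated linearly from a five-concentration, 48-hour dose response in 96-well plates. GI50 = concentration required for 50% inhibition of growth.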 Activity calls are given as the source filed them. Rule as the data show it: active = GI50 up to about 1.1 µM and inactive = higher.
Key:
Experiment in all cases: DTP human tumour cell line panel, 48 h
NCI-H23 = tested on: NCI-H23
NCI/ADR-RES = tested on: NCI/ADR-RES
NCI-H460 = tested on: NCI-H460
CCRF-CEM = tested on: CCRF-CEM
Malme-3M = tested on: Malme-3M
MDA-MB-231 = tested on: MDA-MB-231
OVCAR-4 = tested on: OVCAR-4
COLO 205 = tested on: COLO 205
SR = tested on: SR
SK-MEL-28 = tested on: SK-MEL-28
DU-145 = tested on: DU-145
PC-3 = tested on: PC-3
SK-MEL-2 = tested on: SK-MEL-2
OVCAR-8 = tested on: OVCAR-8
SF-539 = tested on: SF-539
KM12 = tested on: KM12
SK-MEL-5 = tested on: SK-MEL-5
OVCAR-5 = tested on: OVCAR-5
HCT-116 = tested on: HCT-116
MDA-N = tested on: MDA-N
SNB-19 = tested on: SNB-19
SF-295 = tested on: SF-295
ACHN = tested on: ACHN
U-251 = tested on: U-251
SF-268 = tested on: SF-268
M14 = tested on: M14
HT-29 = tested on: HT-29
HOP-62 = tested on: HOP-62
UACC-62 = tested on: UACC-62
SNB-75 = tested on: SNB-75
UACC-257 = tested on: UACC-257
CAKI-1 = tested on: CAKI-1
EKVX = tested on: EKVX
MDA-MB-435 = tested on: MDA-MB-435
MOLT-4 = tested on: MOLT-4
K562 = tested on: K562
Hs-578T = tested on: Hs-578T
SW-620 = tested on: SW-620
OVCAR-3 = tested on: OVCAR-3
HCC 2998 = tested on: HCC 2998
RPMI-8226 = tested on: RPMI-8226
BT-549 = tested on: BT-549
UO-31 = tested on: UO-31
RXF 393 = tested on: RXF 393
MCF7 = tested on: MCF7
HOP-92 = tested on: HOP-92
SN12C = tested on: SN12C
LOX IMVI = tested on: LOX IMVI
T47D = tested on: T47D
TK-10 = tested on: TK-10
IGROV-1 = tested on: IGROV-1
A549 = tested on: A549
NCI-H226 = tested on: NCI-H226
SK-OV-3 = tested on: SK-OV-3
786-0 = tested on: 786-0
HCT-15 = tested on: HCT-15
A498 = tested on: A498
NCI-H522 = tested on: NCI-H522
HL-60 = tested on: HL-60

Compound: Cc1cc(C)c(S(=O)(=O)N(CCCCCN)OCCCN)c(C)c1
- GI50 (NCI-H23): 18.3 µM (inactive)
- GI50 (NCI/ADR-RES): 18 µM (inactive)
- GI50 (NCI-H460): 16.8 µM (inactive)
- GI50 (CCRF-CEM): 20.7 µM (inactive)
- GI50 (Malme-3M): 23.4 µM (inactive)
- GI50 (MDA-MB-231): 31.7 µM (inactive)
- GI50 (OVCAR-4): 21.5 µM (inactive)
- GI50 (COLO 205): 20.2 µM (inactive)
- GI50 (SR): 12.7 µM (inactive)
- GI50 (SK-MEL-28): 16.9 µM (inactive)
- GI50 (DU-145): 16.7 µM (inactive)
- GI50 (PC-3): 14.7 µM (inactive)
- GI50 (SK-MEL-2): 17.9 µM (inactive)
- GI50 (OVCAR-8): 18.8 µM (inactive)
- GI50 (SF-539): 11.9 µM (inactive)
- GI50 (KM12): 19 µM (inactive)
- GI50 (SK-MEL-5): 16.3 µM (inactive)
- GI50 (OVCAR-5): 17.9 µM (inactive)
- GI50 (HCT-116): 17.9 µM (inactive)
- GI50 (MDA-N): 16.7 µM (inactive)
- GI50 (SNB-19): 20.3 µM (inactive)
- GI50 (SF-295): 15.1 µM (inactive)
- GI50 (ACHN): 19.5 µM (inactive)
- GI50 (U-251): 18.3 µM (inactive)
- GI50 (SF-268): 20.3 µM (inactive)
- GI50 (M14): 18.3 µM (inactive)
- GI50 (HT-29): 14.1 µM (inactive)
- GI50 (HOP-62): 16.5 µM (inactive)
- GI50 (UACC-62): 17.7 µM (inactive)
- GI50 (SNB-75): 15.3 µM (inactive)
- GI50 (UACC-257): 17.1 µM (inactive)
- GI50 (CAKI-1): 17.4 µM (inactive)
- GI50 (EKVX): 15.9 µM (inactive)
- GI50 (MDA-MB-435): 18.2 µM (inactive)
- GI50 (MOLT-4): 14.4 µM (inactive)
- GI50 (K562): 17 µM (inactive)
- GI50 (Hs-578T): 22 µM (inactive)
- GI50 (SW-620): 19 µM (inactive)
- GI50 (OVCAR-3): 17.5 µM (inactive)
- GI50 (HCC 2998): 7.14 µM (inactive)
- GI50 (RPMI-8226): 11.7 µM (inactive)
- GI50 (BT-549): 17.4 µM (inactive)
- GI50 (UO-31): 14.1 µM (inactive)
- GI50 (RXF 393): 10.3 µM (inactive)
- GI50 (MCF7): 17.1 µM (inactive)
- GI50 (HOP-92): 15.9 µM (inactive)
- GI50 (SN12C): 18.1 µM (inactive)
- GI50 (LOX IMVI): 17.7 µM (inactive)
- GI50 (T47D): 20.6 µM (inactive)
- GI50 (TK-10): 17 µM (inactive)
- GI50 (IGROV-1): 13.9 µM (inactive)
- GI50 (A549): 19 µM (inactive)
- GI50 (NCI-H226): 14.8 µM (inactive)

Compound: C=Cc1c(C)c2cc3nc(c4c5[nH]c(cc6nc(cc1[nH]2)C(C)=C6CC)c(C)c5C(=O)C4C(=O)OC)C(CCC(=O)OC)C3C (stereo not given)
- GI50 (NCI-H23): > 100 µM (inactive)
- GI50 (NCI-H460): > 100 µM (inactive)
- GI50 (CCRF-CEM): > 100 µM (inactive)
- GI50 (Malme-3M): > 100 µM (inactive)
- GI50 (MDA-MB-231): > 100 µM (inactive)
- GI50 (OVCAR-4): > 100 µM (inactive)
- GI50 (COLO 205): > 100 µM (inactive)
- GI50 (SR): > 100 µM (inactive)
- GI50 (SK-MEL-28): > 100 µM (inactive)
- GI50 (DU-145): 40.4 µM (inactive)
- GI50 (PC-3): > 100 µM (inactive)
- GI50 (SK-MEL-2): > 100 µM (inactive)
- GI50 (OVCAR-8): > 100 µM (inactive)
- GI50 (SF-539): > 100 µM (inactive)
- GI50 (KM12): > 100 µM (inactive)
- GI50 (SK-MEL-5): > 100 µM (inactive)
- GI50 (OVCAR-5): > 100 µM (inactive)
- GI50 (HCT-116): > 100 µM (inactive)
- GI50 (MDA-N): > 100 µM (inactive)
- GI50 (SK-OV-3): > 100 µM (inactive)
- GI50 (786-0): > 100 µM (inactive)
- GI50 (SNB-19): > 100 µM (inactive)
- GI50 (SF-295): > 100 µM (inactive)
- GI50 (ACHN): > 100 µM (inactive)
- GI50 (U-251): > 100 µM (inactive)
- GI50 (SF-268): > 100 µM (inactive)
- GI50 (M14): > 100 µM (inactive)
- GI50 (HT-29): > 100 µM (inactive)
- GI50 (HOP-62): > 100 µM (inactive)
- GI50 (UACC-62): > 100 µM (inactive)
- GI50 (HCT-15): > 100 µM
- GI50 (A498): > 100 µM (inactive)
- GI50 (SNB-75): > 100 µM (inactive)
- GI50 (UACC-257): > 100 µM (inactive)
- GI50 (NCI-H522): > 100 µM (inactive)
- GI50 (CAKI-1): > 100 µM (inactive)
- GI50 (EKVX): > 100 µM (inactive)
- GI50 (MDA-MB-435): > 100 µM (inactive)
- GI50 (K562): > 100 µM (inactive)
- GI50 (Hs-578T): 81.3 µM (inactive)
- GI50 (SW-620): > 100 µM (inactive)
- GI50 (OVCAR-3): > 100 µM (inactive)
- GI50 (HCC 2998): 59.7 µM (inactive)
- GI50 (RPMI-8226): > 100 µM (inactive)
- GI50 (BT-549): > 100 µM (inactive)
- GI50 (UO-31): > 100 µM (inactive)
- GI50 (RXF 393): > 100 µM (inactive)
- GI50 (MCF7): > 100 µM (inactive)
- GI50 (HOP-92): > 100 µM (inactive)
- GI50 (SN12C): > 100 µM (inactive)
- GI50 (HL-60): > 100 µM (inactive)
- GI50 (LOX IMVI): > 100 µM (inactive)
- GI50 (T47D): > 100 µM (inactive)
- GI50 (TK-10): > 100 µM (inactive)
- GI50 (IGROV-1): > 100 µM (inactive)
- GI50 (A549): > 100 µM (inactive)
- GI50 (NCI-H226): > 100 µM (inactive)
